Measurements as given in US20260250290A1 (BRISTOL-MYERS SQUIBB COMPANY, priority 2023, published 2026).
Where a name gives a salt, the structure may show the parent alone.

Biological target: T1, full length SGK1 (Homo sapiens, UniProt O00141)
T1 construct: 125 μM full length SGK1 (Life Technologies Part #PR7358A); purchased Life Technologies PR7358A
T1 sequence (O00141 1-431): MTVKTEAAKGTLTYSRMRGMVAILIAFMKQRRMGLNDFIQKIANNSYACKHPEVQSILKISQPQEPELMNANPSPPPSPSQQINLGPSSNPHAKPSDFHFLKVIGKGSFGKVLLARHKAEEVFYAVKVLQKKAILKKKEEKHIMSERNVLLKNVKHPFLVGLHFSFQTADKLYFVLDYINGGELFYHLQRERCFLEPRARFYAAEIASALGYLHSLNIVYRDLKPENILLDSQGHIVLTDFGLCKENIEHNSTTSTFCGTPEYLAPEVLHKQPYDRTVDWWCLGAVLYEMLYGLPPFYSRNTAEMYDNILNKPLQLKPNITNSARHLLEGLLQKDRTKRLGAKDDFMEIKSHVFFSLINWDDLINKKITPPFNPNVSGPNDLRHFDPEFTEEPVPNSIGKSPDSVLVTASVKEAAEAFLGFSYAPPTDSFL
Assay: SGK1 inhibition Assay A (Caliper LabChip electrophoretic separation of fluorescent peptide substrate and phosphorylated product)
Format: biochemical
Details: Assay A; 20 μM ATP, 40 min incubation; read-out: SGK1 IC50

IC50 | Compound
65 nM | CS(=O)(=O)c1ccc(-c2cc(N3CCC[C@@H](NC(=O)c4ccnnc4)C3)c3c(N)ncnn23)cc1 [Example 30, (R)-N-(1-(4-amino-7-(4-(methylsulfonyl)phenyl)pyrrolo[2,1-f][1,2,4]triazin-5-yl)piperidin-3-yl)pyridazine-4-carboxamide]
10 nM | CC(=O)N1CC=C(c2cc(N3CCC[C@@H](NC(=O)c4sc(Cl)cc4OC4CCN(C5COC5)CC4)C3)c3c(N)ncnn23)C1 [Example 582]
5 nM | CC(=O)N1CC=C(c2cc(N3CCC[C@@H](NC(=O)c4cccc(N5CCNC(C(F)(F)F)C5)n4)C3)c3c(N)ncnn23)C1 (stereo partly drawn) [Example 776, N-((R)-1-(7-(1-acetyl-2,5-dihydro-1H-pyrrol-3-yl)-4-aminopyrrolo[2,1-f][1,2,4]triazin-5-yl)piperidin-3-yl)-6-(3-(trifluoromethyl)piperazin-1-yl)picolinamide]
5 nM | Nc1ncnn2c(C3=CCN(C(=O)[C@@H]4CCOC4)C3)cc(N3CCC[C@@H](NC(=O)c4ccc(Cl)s4)C3)c12 [Example 895, N-((R)-1-(4-amino-7-(1-((R)-tetrahydrofuran-3-carbonyl)-2,5-dihydro-1H-pyrrol-3-yl)pyrrolo[2,1-f][1,2,4]triazin-5-yl)piperidin-3-y1)-5~ chlorothiophene-2-carboxamide]
19 nM | Nc1ncnn2c(-c3ccnc(F)c3)cc(N3CCC[C@@H](NC(=O)c4ccc(Cl)s4)C3)c12 [Example 130, N-[(3R)-1-[4-amino-7-(2-fluoropyridin-4-yl)pyrrolo[2,1-f][1,2,4]triazin-5-yl]piperidin-3-yl]-5-chlorothiophene-2-carboxamide]
1 nM | CC(=O)N1CC=C(c2cc(N3CCC[C@@H](NC(=O)c4sc(Cl)cc4OCCN4CCC(C)(N)CC4)C3)c3c(N)ncnn23)C1 [Example 300, (R)-N-(1-(7-(1-acetyl-2,5-dihydro-1H-pyrrol-3-yl)-4-aminopyrrolo[2,1-f][1,2,4]triazin-5-yl)piperidin-3-yl)-3-(2-(4-amino-4-methylpiperidin-1-yl)ethoxy)-5-chlorothiophene-2-carboxamide]
5 nM | CNC(=O)c1ccc(-c2cc(N3CCC[C@@H](NC(=O)c4ccc(Cl)s4)C3)c3c(N)ncnn23)cn1 [Example 242, (R)-5-(4-amino-5-(3-(5-chlorothiophene-2-carboxamido)piperidin-1-yl)pyrrolo[2,1-f][1,2,4]triazin-7-yl)-N-methylpicolinamide]
21 nM | COC(=O)N1CC=C(c2cc(N3CCC[C@@H](NC(=O)c4sc5ccncc5c4OCCN(C)C)C3)c3c(N)ncnn23)C1 [Example 668, methyl (R)-3-(4-amino-5-(3-(3-(2-(dimethylamino)ethoxy)thieno [3,2-c]pyridine-2-carboxamido)piperidin-1-yl)pyrrolo[2,1-f] [1,2,4]triazin-7-yl)-2,5-dihydro-1H-pyrrole-1-carboxylate]
310 nM | CC(=O)N1CC=C(c2cc(N3CCC[C@@H](NC(=O)c4sc(C(F)F)cc4C4CCN(C(C)C)C4)C3)c3c(N)ncnn23)C1 (stereo partly drawn) [Example 399, N-((R)-1-(7-(1-acetyl-2,5-dihydro-1H-pyrrol-3-yl)-4-aminopyrrolo[2,1-f][1,2,4]triazin-5-yl)piperidin-3-yl)-5-(difluoromethyl)-3-(1-isopropylpyrrolidin-3-yl)thiophene-2-carboxamide]
2 nM | NC(=O)c1ccc(-c2cc(N3CCC[C@@H](NC(=O)c4sc(Cl)cc4OC4CC5(CNC5)C4)C3)c3c(N)ncnn23)cc1F [Example 590, (R)-3-((2-azaspiro[3.3]heptan-6-yl)oxy)-N-(1-(4-amino-7-(4-carbamoyl-3-fluorophenyl)pyrrolo[2,1-f][1,2,4]triazin-5-yl)piperidin-3-yl)-5-chlorothiophene-2-carboxamide]
66 nM | Cc1nc(C)c(C(=O)N[C@@H]2CCCN(c3cc(-c4ccc(C#N)nc4)n4ncnc(N)c34)C2)s1 [Example 512, (R)-N-(1-(4-amino-7-(6-cyanopyridin-3-yl)pyrrolo[2,1-f][1,2,4]triazin-5-yl)piperidin-3-yl)-2.4-dimethylthiazole-5-carboxamide]
28 nM | CC(=O)N1CC=C(c2cc(N3CCC[C@@H](NC(=O)c4cc5cc(F)ccc5[nH]4)C3)c3c(N)ncnn23)C1 [Example 517, (R)-N-(1-(7-(1-acetyl-2,5-dihydro-1H-pyrrol-3-yl)-4-aminopyrrolo[2,1-f][1,2,4]triazin-5-yl)piperidin-3-yl)-5-fluoro-1H-indole-2-carboxamide]
14 nM | C=Cc1cccc(C(=O)N[C@@H]2CCCN(c3cc(-c4ccc(S(C)(=O)=O)cc4)n4ncnc(N)c34)C2)c1 [Example 80, (R)-N-(1-(4-amino-7-(4-(methylsulfonyl)phenyl)pyrrolo[2,1-f][1,2,4]triazin-5-yl)piperidin-3-yl)-3-vinylbenzamide]
199 nM | Nc1ncnn2c(-c3ccc(N4CCOCC4)cc3)cc(N3CCC[C@@H](NC(=O)c4ccc(Cl)s4)C3)c12 [Example 223, (R)-N-(1-(4-amino-7-(4-morpholinophenyl)pyrrolo [2,1-f][1,2,4]triazin-5-yl)piperidin-3-yl)-5-chlorothiophene-2-carboxamide, TFA]
230 nM | Cc1ccc(C(=O)N[C@@H]2CCN(c3cc(-c4ccc(S(C)(=O)=O)cc4)n4ncnc(N)c34)C2)s1 [Example 136, (R)—N-(1-(4-amino-7-(4-(methylsulfonyl)phenyl)pyrrolo[2,1-f][1,2,4]triazin-5-yl)pyrrolidin-3-yl)-5-methylthiophene-2-carboxamide, TFA]
1 nM | CC(=O)N1CC=C(c2cc(N3CCC[C@@H](NC(=O)c4ccc(-c5ccccc5)o4)C3)c3c(N)ncnn23)C1 [Example 454, (R)-N-(1-(7-(1-acetyl-2,5-dihydro-1H-pyrrol-3-yl)-4-aminopyrrolo[2,1-f][1,2,4]triazin-5-yl)pipridin-3-yl)-5-phenylfuran-2-carboxamide]
88 nM | CN1CCN(c2cccc(C(=O)N[C@@H]3CCCN(c4cc(-c5ccnn5C)n5ncnc(N)c45)C3)n2)CC1 [Example 795, (R)-N-(1-(4-amino-7-(1-methyl-1H-pyrazol-5-yl)pyrrolo[2,1-f][1,2,4]triazin-5-yl)piperidin-3-yl)-6-(4-methylpiperazin-1-yl)picolinamide]
91 nM | COC(=O)c1ccc(-c2cc(N3CCC[C@@H](NC(=O)c4ccc(Cl)s4)C3)c3c(N)ncnn23)n1C [Example 238, methyl 5-{4-amino-5-[(3R)-3-(5-chlorothiophene-2-amido)piperidin-1-yl]pyrrolo[2,1-f] [1,2,4]triazin-7-yl}-1-methyl-1H-pyrrole-2-carboxylate]
23 nM | COc1cc(C(=O)N[C@@H]2CCCN(c3cc(C4=CCN(C(C)=O)C4)n4ncnc(N)c34)C2)ccn1 [Example 716, (R)-N-(1-(7-(1-acetyl-2,5-dihydro-1H-pyrrol-3-yl)-4-aminopyrrolo[2,1-f][1,2,4]triazin-5-yl)piperidin-3-yl)-2-methoxyisonicotinamide]
241 nM | CC(=O)N1CC=C(c2cc(N3CCC[C@@H](NC(=O)c4ccncn4)C3)c3c(N)ncnn23)C1 [Example 740, (R)-N-(1-(7-(1-acetyl-2,5-dihydro-1H-pyrrol-3-yl)-4-aminopyrrolo[2,1-f][1,2,4]triazin-5-yl)piperidin-3-yl)pyrimidine-4-carboxamide]
47 nM | CC(=O)N1CC=C(c2cc(N3CCC[C@@H](NC(=O)c4sc(Cl)cc4OCCN(C)C)C3)c3c(N)ncnn23)CC1 [Example 180, (R)—N-(1-(7-(1-acetyl-1,2,3,6-tetrahydropyridin-4-yl)-4-aminopyrrolo[2,1-f][1,2,4]triazin-5-yl)piperidin-3-yl)-5-chloro-3-(2-(dimethylamino)ethoxy)thiophene-2-carboxamide 2 TFA]
28 nM | CS(=O)(=O)c1ccc(-c2cc(N3CCC[C@@H](NC(=O)c4cn5ccsc5n4)C3)c3c(N)ncnn23)cc1 [Example 45, (R)-N-(1-(4-amino-7-(4-(methylsulfonyl)phenyl)pyrrolo [2,1-f][1,2,4]triazin-5-yl)piperidin-3-yl)imidazo[2,1-b]thiazole-6-carboxamide]
5 nM | Nc1ncnn2c(-c3ccnc(F)c3)cc(N3CCC[C@@H](NC(=O)c4cc(Cl)c(Cl)s4)C3)c12 [Example 150, (R)-N-(1-(4-amino-7-(2-fluoropyridin-4-yl)pyrrolo[2,1-f][1,2,4]triazin-5-yl)piperidin-3-yl)-4,5-dichlorothiophene-2-carboxamide]
2 nM | Nc1ncnn2c(-c3ccn4nnnc4c3)cc(N3CCC[C@@H](NC(=O)c4ccc(Cl)s4)C3)c12 [Example 253, (R)-N-(1-(4-amino-7-(tetrazolo[1,5-a]pyridin-7-yl)pyrrolo[2,1-f][1,2,4]triazin-5-yl)piperidin-3-yl)-5-chlorothiophene-2-carboxamide]
89 nM | CC(=O)N1CC=C(c2cc(N3CCC[C@@H](NC(=O)c4scnc4C)C3)c3c(N)ncnn23)C1 [Example 461, (R)-N-(1-(7-(1-acetyl-2,5-dihydro-1H-pyrrol-3-yl)-4-aminopyrrolo[2,1-f][1,2,4]triazin-5-yl)piperidin-3-yl)-4-methylthiazole-5-carboxamide]
4 nM | COCCOc1cc(Cl)sc1C(=O)N[C@@H]1CCCN(c2cc(-c3ccnc(F)c3)n3ncnc(N)c23)C1 [Example 147, (R)-N-(1-(4-amino-7-(2-fluoropyridin-4-yl)pyrrolo[2,1-f][1,2,4]triazin-5-yl)piperidin-3-yl)-5-chloro-3-(2-methoxyethoxy)thiophene-2-carboxamide]
